# Laboratory results taken from publication PMC4305287, “Two Novel α7 Nicotinic Acetylcholine Receptor Ligands: In Vitro Properties and Their Efficacy in Collagen-Induced Arthritis in Mice” (PLoS ONE, 2015).
# Entries after “also recorded” stand apart in the source; their conditions may differ.
# Tests used:
# α4β2 nAChR = target: T1, α4β2 nAChR (Rattus norvegicus, UniProt P09483+P12390); assay: cytisine binding to rat brain membranes; settings: read-out: Ki, α4β2nAChR binding affinity
# T1 construct: tissue Cerep; host or cells: rat brain membranes
# T1 sequence (P09483 31-630): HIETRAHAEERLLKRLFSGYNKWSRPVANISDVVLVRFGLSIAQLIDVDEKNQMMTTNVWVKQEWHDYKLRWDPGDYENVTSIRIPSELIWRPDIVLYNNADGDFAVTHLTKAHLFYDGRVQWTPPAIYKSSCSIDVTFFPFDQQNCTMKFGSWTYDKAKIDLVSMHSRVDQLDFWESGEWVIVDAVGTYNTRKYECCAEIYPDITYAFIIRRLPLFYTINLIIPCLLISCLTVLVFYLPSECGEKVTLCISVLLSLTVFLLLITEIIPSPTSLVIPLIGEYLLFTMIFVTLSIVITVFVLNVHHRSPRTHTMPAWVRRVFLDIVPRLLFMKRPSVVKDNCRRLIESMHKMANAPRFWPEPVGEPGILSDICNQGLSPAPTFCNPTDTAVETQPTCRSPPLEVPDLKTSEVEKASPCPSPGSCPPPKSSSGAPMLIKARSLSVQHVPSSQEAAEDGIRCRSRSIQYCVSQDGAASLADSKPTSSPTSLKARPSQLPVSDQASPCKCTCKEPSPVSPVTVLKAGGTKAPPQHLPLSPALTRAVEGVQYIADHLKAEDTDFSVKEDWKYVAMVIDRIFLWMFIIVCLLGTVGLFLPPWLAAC
# T1 sequence (P12390 25-500): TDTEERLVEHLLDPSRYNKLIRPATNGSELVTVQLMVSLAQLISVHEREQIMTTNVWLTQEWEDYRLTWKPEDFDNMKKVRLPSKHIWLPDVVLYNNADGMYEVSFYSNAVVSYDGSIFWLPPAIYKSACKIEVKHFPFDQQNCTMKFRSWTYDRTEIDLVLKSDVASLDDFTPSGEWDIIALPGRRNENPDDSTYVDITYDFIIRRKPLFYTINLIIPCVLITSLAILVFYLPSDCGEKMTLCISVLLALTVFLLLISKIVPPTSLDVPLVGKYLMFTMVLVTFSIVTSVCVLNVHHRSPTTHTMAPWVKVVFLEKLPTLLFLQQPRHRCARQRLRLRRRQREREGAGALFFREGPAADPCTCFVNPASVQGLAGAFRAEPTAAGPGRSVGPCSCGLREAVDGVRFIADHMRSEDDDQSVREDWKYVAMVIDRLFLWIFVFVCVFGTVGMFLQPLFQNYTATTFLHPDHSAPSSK
# Procedure: (§1) Broad selectivity was assessed at Cerep (Celle l’ Evescault, France), as described in the Cerep catalog, though the determination of the effect of PMP-311 and PMP-072 in in vitro radioligand receptor binding assays with 52 different receptors, channels, and transporters. The specific ligand binding to the receptors is defined as the difference between the total binding, and the nonspecific binding determined in the presence of an excess of unlabelled ligand. The results are expressed as a percent of control specific binding and as the mean percent inhibition of control specific binding obtained in the presence of 10 μM PMP-311 and PMP-072. Individual and mean values are presented in the results section. The IC50 values (concentration causing a half-maximal inhibition of control specific binding) and Hill coefficients (nH) were determined by non-linear regression as described above.
# [1] = target: T2, human serotonin transporter (Homo sapiens, UniProt P31645); assay: Cerep broad selectivity radioligand binding panel
# T2 construct: Cerep
# T2 sequence (P31645 whole entry): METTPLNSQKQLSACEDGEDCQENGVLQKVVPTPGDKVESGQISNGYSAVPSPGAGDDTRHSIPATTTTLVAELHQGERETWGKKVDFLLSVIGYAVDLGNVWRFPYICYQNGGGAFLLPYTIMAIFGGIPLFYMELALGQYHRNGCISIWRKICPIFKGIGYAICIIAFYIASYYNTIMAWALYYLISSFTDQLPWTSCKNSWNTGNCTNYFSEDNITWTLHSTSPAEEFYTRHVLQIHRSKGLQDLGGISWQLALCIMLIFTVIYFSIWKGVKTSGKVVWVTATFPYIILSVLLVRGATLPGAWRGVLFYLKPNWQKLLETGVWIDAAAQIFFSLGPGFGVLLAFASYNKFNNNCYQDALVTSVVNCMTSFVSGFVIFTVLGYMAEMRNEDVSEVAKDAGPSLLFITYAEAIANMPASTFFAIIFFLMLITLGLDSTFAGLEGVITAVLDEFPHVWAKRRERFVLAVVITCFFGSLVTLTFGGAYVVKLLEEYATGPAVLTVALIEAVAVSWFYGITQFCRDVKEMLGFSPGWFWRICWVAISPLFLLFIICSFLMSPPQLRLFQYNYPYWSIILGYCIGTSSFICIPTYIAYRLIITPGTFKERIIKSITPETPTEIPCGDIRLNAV
# Procedure: as §1
# [2] = test system: collagen-induced arthritis; assay: collagen-induced arthritis in DBA/1 mice; settings: for disease incidence and onset: 5 mg/kg oral daily day 20-34
# Procedure: Collagen-induced arthritis was induced and evaluated as previously described. The severity of arthritis was assessed using an established semiquantitative scoring system (0–4; 0 = normal, 1 = swelling in 1 joint, 2 = swelling in >1 joint, 3 = swelling in the entire paw, and 4 = deformity and/or ankylosis. The cumulative score for all 4 paws of each mouse was used to represent overall disease severity and progression. Hind paw ankle joint thickness was measured using a caliper For the evaluation of incidence, mice were considered to have arthritis if the arthritis score increased by at least 1 point for 2 or more following days.
# In study 1, we evaluated the role of the two novel α7nAChR-specific modulators in CIA. The receptors were stimulated by oral gavage of PMP-311 (5 mg/kg; n = 15) or PMP-072 (5 mg/kg; n = 17). The compounds were administered once a day from day 20 until the end of the experiment (day 34). Control mice received saline. In study 2, we evaluated the anti-inflammatory effects of different dosages of the α7nAChR-specific agonists. PMP-311 (2 or 10 mg/kg; n = 15) and PMP-072 (10 or 20 mg/kg; n = 15) were administered in the same way as in study 1. In both studies, mice were inspected daily for signs of arthritis and thickness of hind paws was measured using a caliper from day 16 till sacrifice by 2 independent observers (MAvM and JK) who were not aware of the treatment.
# Hind paws were used for radiographic evaluation. Joint destruction was scored on a scale of 0–4, where 0 = no damage, 1 = demineralization, 2 = 1 or 2 erosions, 3 = severe erosions, and 4 = complete destruction of the joints. The radiographs were scored by 2 independent observers (MAvM and MJV) in a blinded manner; minor differences in scoring between the observers were resolved by mutual agreement.
# Hind paws were fixed for 24 hours in 10% buffered formalin and decalcified in 15% EDTA. The paws were then embedded in paraffin, and serial 5 μm sagittal sections of whole hind paws were cut and stained with hematoxylin and eosin (HE). Two independent observers (MAvM and MJV) assessed the tissue for the degree of synovitis by microscopic evaluation, under blinded conditions, as described previously. Synovitis was graded on a scale of 0 (no inflammation) to 3 (severely inflamed joint) based on the extent of infiltration of inflammatory cells into the synovium.
# To evaluate the effects of different treatments, we determined the change in clinical arthritis scores in each mouse from the start of treatment until the end of the experiment. AUC for the change in arthritis scores were calculated. The significance of the differences in the mean changes in scores (clinical, radiologic and histologic) between groups was determined by Kruskal-Wallis test followed by Mann-Whitney U test (SPSS version 12.0.2; SPSS, Chicago, IL). Incidence was compared using Kaplan-Meier survival analysis (GraphPad Prism). P values less than 0.05 were considered statistically significant.
# [3] = test system: T3, human α7 nAChR primed with PNU-120596; assay: electrophysiology of oocytes primed with PNU-120596; type: biochemical; settings: after 60 s priming with 300 μM PNU-120596; PMP-311 1 μM, PMP-072 10 μM, MLA 10 μM
# T3 construct: expressed in transfected cells; host or cells: Xenopus laevis oocytes injected with cRNA; clones from Dr. Jon Lindstrom (α7) and Dr. Millet Treinin (RIC-3)
# Procedure: Each oocyte received two initial control applications of 300 μM ACh, followed by the experimental drug application, and subsequent control application of 300 μM ACh, unless otherwise indicated. Responses to experimental drug applications were determined relative to the preceding ACh control responses in order to normalize the data, compensating for the varying levels of channel expression among the oocytes. Responses for α7 nAChR were calculated as net charge, since peak currents inaccurately report the agonist concentration dependence of α7 nAChR-mediated responses. […] Imax, n, and the EC50 were all unconstrained for the fitting procedures except in the case of the ACh concentration-response curves.
# [4] = study 1, 5 mg/kg oral daily day 20-34
compound,measurement,setting,value
"COc1ccc(NC(=O)N2CCNC[C@@H]2COc2cccnc2)cc1 [PMP-072, (R)-N-(4-methoxyphenyl)-2-((pyridin-3-yloxy)methyl)piperazine-1-carboxamide]",Ki,α4β2 nAChR,> 100 µM
same,Ki,[1],1.8 µM
same,effect on arthritis activity,[2]; 5 mg/kg oral daily,did not significantly ameliorate arthritis activity; also recorded: trend towards improvement
same,joint destruction (radiographic score),[2]; 5 mg/kg oral daily,did not reduce bone degradation
same,disease incidence and onset,[2],trend towards reduced incidence of disease
same,joint destruction (radiographic score),[2]; 10 mg/kg oral daily,trend towards reduced joint destruction
same,paw swelling,[2]; 10 mg/kg oral daily,decrease in paw swelling
same,reduction in arthritis score compared to saline,[2]; 10 mg/kg oral daily,48%
same,synovial inflammation (synovitis score),[2]; 10 mg/kg oral daily,significantly lower scores for synovitis
same,effect on arthritis score,[2]; 20 mg/kg oral daily,no improvement
same,tolerability of treatment,[2]; [4],tolerated the drug treatment well
same,tolerability of treatment,"[2]; study 2, PMP-311 2 and 10 mg/kg, PMP-072 10 and 20 mg/kg",tolerated the drug treatments well
same,ion channel response of PNU-120596 primed cells,[3],able to activate large ion channel currents
"c1cncc(OC[C@@H]2CNCCN2c2nc3ncccc3o2)c1 [PMP-311, (S)-2-(2-((Pyridin-3-yloxy)methyl)piperazin-1-yl)oxazolo[4,5-b]pyridine]",Ki,α4β2 nAChR,0.03 µM
same,inhibition at 10 µM,[1]; 10 μM,72%
same,joint destruction (radiographic score),[2]; 2 mg/kg oral daily,significant reduction in joint destruction
same,mice that developed arthritis,[2]; 2 mg/kg oral daily,14 out of 15
same,paw swelling,[2]; 2 mg/kg oral daily,decreased
same,reduction in arthritis score compared to saline,[2]; 2 mg/kg oral daily,40%
same,synovial inflammation,[2]; 2 mg/kg oral daily,significant reduction
same,animals that did not develop arthritis,[2]; 5 mg/kg oral daily,six out of 15
same,effect on arthritis activity,[2]; 5 mg/kg oral daily,amelioration of clinical signs of arthritis
same,joint destruction (radiographic score),[2]; 5 mg/kg oral daily,significant reduction in joint destruction
same,synovial inflammation (HE staining of knee joints),[2]; 5 mg/kg oral daily,significant reduction of synovial inflammation
same,disease incidence and onset,[2],reduced disease incidence and delayed onset of disease
same,reduction in clinical score compared to saline,"[2]; 5 mg/kg oral daily, dose-response comparison",49%
same,joint destruction (radiographic score),[2]; 10 mg/kg oral daily,significantly decreased
same,reduction in arthritis score compared to saline,[2]; 10 mg/kg oral daily,39%
same,decrease in paw swelling compared to saline-treated mice,[2]; [4],39%
same,decrease of AUC of clinical score compared to control mice,[2]; [4],51%
